According to ChEMBL document CHEMBL1154526, “Novel non-active site inhibitor of Cryptosporidium hominis TS-DHFR identified by a virtual screen” (Bioorg Med Chem Lett, 2009):
Positions count from the first letter of the chain named. pIC50, pKd: −log10 of the molar value.

Columns and labels:
[1] = Inhibition of Cryptosporidium hominis TS-DHFR by spectroscopic assay
[2] = test system: T1, Dihydrofolate reductase (Cryptosporidium hominis), Q27552 [D201A]; assay: Inhibition of Cryptosporidium hominis DHFR D201A mutant; design: scale not given: the % may be the effect or the level left
T1 sequence (whole entry): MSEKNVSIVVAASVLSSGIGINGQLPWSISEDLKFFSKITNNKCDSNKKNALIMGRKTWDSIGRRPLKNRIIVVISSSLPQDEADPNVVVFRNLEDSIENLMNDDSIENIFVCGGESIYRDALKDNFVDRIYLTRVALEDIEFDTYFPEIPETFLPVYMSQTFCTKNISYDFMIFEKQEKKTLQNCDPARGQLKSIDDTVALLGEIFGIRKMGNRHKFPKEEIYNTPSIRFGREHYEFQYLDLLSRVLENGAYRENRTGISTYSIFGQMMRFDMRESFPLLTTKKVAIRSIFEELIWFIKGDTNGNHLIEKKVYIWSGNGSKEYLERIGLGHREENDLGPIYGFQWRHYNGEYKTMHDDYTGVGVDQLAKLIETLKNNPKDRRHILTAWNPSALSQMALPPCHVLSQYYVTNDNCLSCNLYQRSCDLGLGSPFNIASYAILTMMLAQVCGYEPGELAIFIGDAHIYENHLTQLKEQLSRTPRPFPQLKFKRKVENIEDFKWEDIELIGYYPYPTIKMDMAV

[3] = Binding affinity to Cryptosporidium hominis TS-DHFR by burst amplitude assay
Dihydrofolate reductase = molecular target: T2, Dihydrofolate reductase (Homo sapiens, UniProt P00374); assay: Inhibition of human DHFR
T2 sequence (P00374 whole entry): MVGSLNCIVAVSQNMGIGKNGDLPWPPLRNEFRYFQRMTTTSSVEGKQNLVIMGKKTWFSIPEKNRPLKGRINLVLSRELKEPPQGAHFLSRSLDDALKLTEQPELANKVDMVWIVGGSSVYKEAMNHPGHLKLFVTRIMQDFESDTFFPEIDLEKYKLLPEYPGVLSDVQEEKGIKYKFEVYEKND

[4] = molecular target: T3, Bifunctional dihydrofolate reductase-thymidylate synthase (Toxoplasma gondii, UniProt Q07422); assay: Inhibition of Toxoplasma gondii TS-DHFR
T3 sequence (Q07422 whole entry): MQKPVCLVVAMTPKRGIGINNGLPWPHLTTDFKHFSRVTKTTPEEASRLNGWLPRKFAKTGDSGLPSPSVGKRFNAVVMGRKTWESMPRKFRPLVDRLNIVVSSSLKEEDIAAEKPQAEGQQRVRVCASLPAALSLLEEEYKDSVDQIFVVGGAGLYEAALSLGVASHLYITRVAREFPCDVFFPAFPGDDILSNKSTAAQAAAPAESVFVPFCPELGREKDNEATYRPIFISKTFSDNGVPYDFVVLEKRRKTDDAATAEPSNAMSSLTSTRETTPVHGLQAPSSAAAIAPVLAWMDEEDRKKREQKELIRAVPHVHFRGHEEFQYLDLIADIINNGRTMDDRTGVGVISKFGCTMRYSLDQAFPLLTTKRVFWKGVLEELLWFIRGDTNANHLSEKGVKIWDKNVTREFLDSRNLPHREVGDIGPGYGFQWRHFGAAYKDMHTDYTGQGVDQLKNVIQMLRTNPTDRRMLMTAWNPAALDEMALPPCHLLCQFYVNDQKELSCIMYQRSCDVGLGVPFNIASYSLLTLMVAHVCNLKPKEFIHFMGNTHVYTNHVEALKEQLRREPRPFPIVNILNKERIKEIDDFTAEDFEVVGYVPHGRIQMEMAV

Cryptosporidium hominis [5] = conditions: 200 uM
Description: Activity at Cryptosporidium hominis DHFR at 200 uM using dihydrofolate substrate by steady state competition assay

[6] = Inhibition of Cryptosporidium hominis 80 to 250 nM TS-DHFR by spectroscopic assay
Cryptosporidium hominis [7] = conditions: 200 uM; remark: listed apart in the source
Description: Activity at Cryptosporidium hominis DHFR at 200 uM using NADPH substrate by steady state competition assay

[8] = test system: T4, Dihydrofolate reductase (Cryptosporidium hominis), Q27552 [R190G]; assay: Inhibition of Cryptosporidium hominis DHFR R190G mutant; design: scale not given: the % may be the effect or the level left
T4 sequence (whole entry): T1 sequence (whole entry) with R190G, A201D

Thymidylate synthase = Thymidylate synthase (Homo sapiens, UniProt P04818); assay: Inhibition of human thymidylate synthase
Sequence of Thymidylate synthase (P04818 whole entry): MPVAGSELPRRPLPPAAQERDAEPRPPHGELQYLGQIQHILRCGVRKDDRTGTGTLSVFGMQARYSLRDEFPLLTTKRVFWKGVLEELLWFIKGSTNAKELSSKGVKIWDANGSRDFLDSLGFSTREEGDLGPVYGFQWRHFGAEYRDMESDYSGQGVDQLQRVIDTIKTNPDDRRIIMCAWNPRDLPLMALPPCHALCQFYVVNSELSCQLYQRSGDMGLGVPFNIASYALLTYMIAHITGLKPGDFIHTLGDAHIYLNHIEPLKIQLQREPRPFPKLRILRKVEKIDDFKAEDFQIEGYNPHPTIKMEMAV

## C[C@H]1O[C@@H](O[C@H]2[C@@H](O)C[C@H](O[C@H]3[C@@H](O)C[C@H](O[C@H]4CC[C@@]5(C)[C@H](CC[C@@H]6[C@@H]5C[C@@H](O)[C@]5(C)[C@@H](C7=CC(=O)OC7)CC[C@]65O)C4)O[C@@H]3C)O[C@@H]2C)C[C@H](O)[C@@H]1O [DIGOXIN]
[1]
  pIC50: < 3.30

## COc1cccc2c1C(=O)C1=C(C2=O)C(O)C2=C(C1O)[C@@H](C[C@@H]1C[C@H](N)[C@@H](O)[C@H](C)O1)C[C@@](O)(/C(C)=N/NC(=O)c1ccccc1)C2 (some centres not stated) [RUBIDAZONE]
[1]
  pIC50: < 3.30

## COC1=C(N)C(=O)c2nc(-c3nc(C(=O)O)c(C)c(-c4ccc(OC)c(OC)c4O)c3N)ccc2C1=O [STREPTONIGRIN]
[1]
  pIC50: 4.10

## CC(=O)N1CCN(c2ccc(OCC3COC(Cn4ccnc4)(c4ccc(Cl)cc4Cl)O3)cc2)CC1 (configuration not stated) [KETOCONAZOLE]
[1]
  pIC50: < 3.30

## Cc1cc2nc3c(=O)[nH]c(=O)nc-3n(C[C@H](O)[C@H](O)[C@H](O)COP(=O)(O)O)c2cc1C [RIBOFLAVIN 5'-PHOSPHATE]
[2]
  Activity: 10%
[3]
  pKd: 4.32
Dihydrofolate reductase
  pIC50: 3.49
[1]
  pIC50: 4.26
[4]
  pIC50: < 3.30
Cryptosporidium hominis [5]
  Km: 7.2 µM
  Vmax: 1.8 µmol/min
[6]
  pIC50: 4.26
Cryptosporidium hominis [7]
  Km: 3 µM
  Vmax: 1.77 µmol/min
[8]
  Activity: 20%
Thymidylate synthase
  pIC50: < 3.30

## CC(=O)N[C@@H]1[C@@H](O)[C@H](O[C@@H]2O[C@H](CO)[C@@H](O)[C@H](O)[C@H]2NC(C)=O)[C@@H](CO)O[C@H]1O [CHITODEXTRIN]
[1]
  pIC50: < 3.30
